# Results: PubChem BioAssay (NCI)
#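 Test compounds were applied to cells in 96-well plates for 48 hours at 5 doses. GI50 = concentration required for 50% inhibition of growth. TGI denotes the concentration required for complete inhibition of growth.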
# Assays:
# Assay in all cases: NCI anticancer screen, dose series, 48 h
# HCC-2998 colon = test system: HCC-2998 colon
# HCT-116 colon = test system: HCT-116 colon
# KM12 colon = test system: KM12 colon
# M14 melanoma = test system: M14 melanoma
# NCI-H522 lung = test system: NCI-H522 lung
# SF-295 CNS = test system: SF-295 CNS
# SK-MEL-2 melanoma = test system: SK-MEL-2 melanoma
# SR leukemia = test system: SR leukemia
# UACC-62 melanoma = test system: UACC-62 melanoma
# SNB-75 CNS = test system: SNB-75 CNS
Structure (SMILES),TGI (HCC-2998 colon) [µM],TGI (HCT-116 colon) [µM],TGI (KM12 colon) [µM],TGI (M14 melanoma) [µM],TGI (NCI-H522 lung) [µM],TGI (SF-295 CNS) [µM],TGI (SK-MEL-2 melanoma) [µM],TGI (SR leukemia) [µM],TGI (UACC-62 melanoma) [µM],TGI (SNB-75 CNS) [µM],GI50 (HCT-116 colon) [µM],GI50 (KM12 colon) [µM],GI50 (NCI-H522 lung) [µM],GI50 (SF-295 CNS) [µM],GI50 (SK-MEL-2 melanoma) [µM],GI50 (SNB-75 CNS) [µM],GI50 (SR leukemia) [µM],GI50 (UACC-62 melanoma) [µM]
COC1=C(OC)C(=O)C(Cc2c(-c3ccccc3)nc3sc(Cl)cn23)=C(C)C1=O,46.6,39.9,41,33.7,30.8,34.3,36.5,72.1,24.6,,,,,,,,,
COc1cc(/C=C2\C(=O)N(c3ccc(Cl)cc3)C(c3ccccc3)S2(=O)=O)cc(OC)c1OC (centres undefined),> 100,> 100,99.3,> 61.6,60.5,> 100,> 100,,> 63.6,> 100,,,,,,,,
CCOC(=O)CC1(N)CC2c3ccccc3OC(=O)C2C(=O)N1 (centres undefined),> 100,> 100,> 100,> 100,> 100,,> 100,> 100,> 100,> 100,,,,,,,,
Oc1ccccc1/C=N/c1nc(-c2ccccc2)cs1,,34.4,> 100,,62.6,> 100,> 100,79.5,> 100,> 100,12.4,51,25.4,> 100,> 100,> 100,24.3,34.5
COc1cc(-c2cc(OC)c(OC)c3ccc(Br)cc23)c2cc(Br)ccc2c1OC,92,24.9,,44.7,72.1,43.8,56,86,47.7,,,,,,,,,
CCOC(=O)CC1C(C(=O)OCC)=Cn2c([nH]c3cccc4cccc2c43)=C1C(=O)OCC (centres undefined),> 100,> 100,> 100,> 100,,> 100,> 100,> 100,> 100,> 100,,,,,,,,
CCOC(=O)NCC(=O)NCC(=O)NCC(N)=O,> 100,> 100,> 100,> 100,> 100,> 100,> 100,> 100,> 100,,,,,,,,,
COc1ccc(Nc2nc(N)c(C(=O)c3ccco3)s2)cc1,71.9,> 66.4,> 100,> 100,> 100,> 100,> 83.9,> 33.8,> 100,,,,,,,,,
COc1ccc(/C=C2\N=C3N(Cc4ccccc4)C=C(N)N3C2=O)cc1,> 100,> 100,> 100,> 100,> 100,> 100,> 100,,> 100,50.7,,,,,,,,
CCOC(=O)CSc1nc(-c2ccc(Cl)cc2)c(C#N)c(=O)[nH]1,> 100,> 100,> 100,> 100,> 100,> 100,> 100,,> 100,> 100,,,,,,,,
Cc1cc(C)n(C(=CC(=O)C(Cl)Cl)n2nc(C)cc2C)n1,,6.81,24,13.3,7.76,31.7,25.7,5.69,7.84,> 100,,,,,,,,
COc1cc2c(cc1OCCN1CCN(CCOc3cc4c(cc3OC)C(=O)N3CCC[C@H]3C=N4)CC1)N=C[C@@H]1CCCN1C2=O,,> 86.8,> 75.3,> 83.6,> 82.1,67.3,58.7,,40,> 100,,,,,,,,
CC(C)(C)c1cc(C(C)(C)C)c2sc(=O)oc2c1O,,29.8,27.9,31.6,26.7,23.9,29.1,63.6,,27.1,,,,,,,,
CC1(c2ccc(Cl)cc2)c2ccccc2C(=O)N1CCCN1C(=O)c2ccccc2C1=O (centres undefined),,37.6,50.8,,,67,46.3,> 100,> 100,> 100,,,,,,,,
COc1ccccc1-c1cc(=O)c2cccnc2[nH]1,> 100,> 100,> 100,> 100,> 100,> 100,> 100,> 100,> 100,,,,,,,,,
CCOC(=O)/C(=C/c1cn(C(C)=O)c2ccccc12)P(=O)(OC)OC,,> 100,,> 100,79.3,> 100,> 100,73.8,,60.1,,,,,,,,
O=C(O)C1C2OC(C(Br)C2Br)C1C(=O)O (centres undefined),,> 100,> 100,> 100,> 100,> 100,> 100,,> 100,> 100,,,,,,,,
CC(=O)N1CN2C(=O)CCC2c2cc(C)ccc21 (centres undefined),> 100,> 100,> 100,> 100,> 100,> 100,> 100,,> 100,> 100,,,,,,,,
Cc1cc(C)n(C(C)(C(=O)Cc2ccccc2)n2nc(C)cc2C)n1,> 100,> 100,> 100,> 100,> 100,> 100,> 100,> 100,> 100,,,,,,,,,
CCOC(=O)CCC(NC(=O)c1ccc(NCc2ccc3nc(OC)c(OC)nc3c2)c2ccccc12)C(=O)OCC (centres undefined),> 100,> 100,> 100,> 100,> 100,> 100,> 100,,> 100,> 100,,,,,,,,
O=c1[nH]c2ccccc2c(=O)n1/N=C\c1ccccc1O,,> 100,> 100,> 100,,> 100,> 100,> 100,> 100,> 100,,,,,,,,
CC1OC23CCCCC2C(C#N)(C#N)C1(C#N)C(=N)O3 (centres undefined),50.1,36.2,61.1,40.3,,> 100,43.5,,,> 100,,,,,,,,
